Results published in patent US4659727A, “Ethene derivatives” (May & Baker Limited, priority 1984, dated 1987).

test system: mouse macrophage cells; assay: reduction by 50% of inhibition of migration of incubated mouse macrophage cells (antagonism or reduction of lymphokine levels); assay type: in vivo; settings: po, twice: one hour before and four hours after antigen, each time at the dose shown, mice
Method: For example, from tests in mice it was calculated that compounds of formula I, when twice administered orally, one hour before and four hours after the administration of antigen, each time at the doses shown in the following Table I, would reduce by 50% the inhibition of migration of incubated mouse macrophage cells measured in a manner similar to that described by Likhite et al, Cellular Immunology, Vol 5, 1972, page 377. This is a measure of antagonism or reduction of the levels of lymphokines and is indicative of utility in the treatment of arthritic patients.

| Compound | ED50 [mg/kg] |
| --- | --- |
| Cc1cc(C)nc(NC=CC=O)c1 [AI, 1-formyl-2-(4,6-dimethylpyrid-2-ylamino)ethene] | 5.2 |
| Cn1cc(C(N)=O)ccc1=NC=C(S(=O)(=O)c1ccccc1)S(=O)(=O)c1ccccc1 [AP, 2-[2,2-bis(phenylsulphonyl)ethen-1-ylimino]-5-carbamoyl-1-methylpyridine] | < 10 |
| O=S(=O)(C(=CNc1nccnn1)S(=O)(=O)c1ccccc1)c1ccccc1 [C, 1,1-bis(phenylsulphonyl)-2-(1,2,4-triazin-3-ylamino)ethene] | 2 |
| O=S(=O)(C(=CNc1nccs1)S(=O)(=O)c1ccccc1)c1ccccc1 [Compound A, 1,1-bis(phenylsulphonyl)-2-(thiazol-2-ylamino)ethene] | 10 |
| O=[N+]([O-])c1ccc(N(C=CS(=O)(=O)c2ccccc2)c2ccc(Br)cn2)cc1 [Compound BE, 1-[N-(5-bromopyrid-2-yl)-N-(4-nitrophenyl)]amino-2-phenylsulphonylethene] | 4.4 |
| Cc1cc(NC=C(S(=O)(=O)c2ccccc2)S(=O)(=O)c2ccccc2)nc(C)n1 [H, 1-(2,6-dimethylpyrimidin-4-ylamino)-2,2-bis(phenylsulphonyl)ethene] | < 10 |
| CS(=O)(=O)C(C#N)=CNc1ccc(Br)cn1 [N, 2-(5-bromopyrid-2-ylamino)-1-cyano-1-methylsulphonylethene] | 28 |
| CC(=O)C(=CNc1ccc(Br)cn1)S(=O)(=O)c1ccccc1 [O, 1-acetyl-2-(5-bromopyrid-2-ylamino)-1-phenylsulphonylethene] | 14 |
| O=S(=O)(C(=CNCc1ccccc1)S(=O)(=O)c1ccc(Cl)cc1)c1ccc(Cl)cc1 [V, 2-benzylamino-1,1-bis(4-chlorophenylsulphonyl)ethene] | < 10 |
| O=S(=O)(C(=CNCc1ccccn1)S(=O)(=O)c1ccc(Cl)cc1)c1ccc(Cl)cc1 [W, 1,1-bis(4-chlorophenylsulphonyl)-2-(pyrid-2-ylmethylamino)ethene] | < 10 |
| O=S(=O)(C(=CNc1ccccc1)S(=O)(=O)c1ccccc1)c1ccccc1 [Z, 1-phenylamino-2,2-bis(phenylsulphonyl)ethene] | 2 |

test system: delayed-type hypersensitivity (Type IV hypersensitivity reaction), foot pad swelling; assay: delayed-type hypersensitivity (DTH) test, foot pad swelling; assay type: in vivo; settings: mice, dose 10 mg/kg animal body weight
From the text: Compounds of formula I were also submitted to the delayed-type hypersensitivity (DTH) test, which is an in-vivo model of cellular immunity (Type IV hypersensitivity reaction) which is suppressed by antirheumatic drugs. Previously sensitised mice receive antigen challenge (using methylated bovine serum albumen) by foot pad injection and the resulting foot pad swelling is compared in control animals and animals treated with compounds of formula I.

| Compound | % inhibition [%] |
| --- | --- |
| O=S(=O)(C(=CNc1cnc2ccccc2c1)S(=O)(=O)c1ccccc1)c1ccccc1 [E, 1,1-bis(phenylsulphonyl)-2-(quinol-3-ylamino)ethene] | 38 |
| O=S(=O)(C(=CNc1ccc2ccccc2n1)S(=O)(=O)c1ccccc1)c1ccccc1 [G, 1,1-bis(phenylsulphonyl)-2-(quinol-2-ylamino)ethene] | 30 |

same assay, conditions: mice, dose 40 mg/kg animal body weight

| Compound | % inhibition [%] |
| --- | --- |
| NC(=O)c1cnc(NC=C(S(=O)(=O)c2ccccc2)S(=O)(=O)c2ccccc2)cn1 [I, 1-(5-carbamoylpyrazin-2-ylamino)-2,2-bis(phenylsulphonyl)ethene] | 30 |

same assay, conditions: mice, dose 50 mg/kg animal body weight

| Compound | % inhibition [%] |
| --- | --- |
| O=S(=O)(C(=CNc1nc2ccccc2s1)S(=O)(=O)c1ccccc1)c1ccccc1 [D, 1-(benzothiazol-2-ylamino)-2,2-bis(phenylsulphonyl)ethene] | 27 |
| O=S(=O)(C(=CNc1cnc2ccccc2c1)S(=O)(=O)c1ccccc1)c1ccccc1 [E, 1,1-bis(phenylsulphonyl)-2-(quinol-3-ylamino)ethene] | 15 |
| O=S(=O)(C(=CNc1ccc2ccccc2n1)S(=O)(=O)c1ccccc1)c1ccccc1 [G, 1,1-bis(phenylsulphonyl)-2-(quinol-2-ylamino)ethene] | 24 |

test system: lipoxygenase; assay: inhibition of lipoxygenase in vitro; assay type: biochemical; settings: 0.0001M
From the text: For example, in tests in vitro at concentrations of 0.0001M, a compound of formula I inhibited lipoxygenase by the percentage shown in the following Table III.

| % inhibition of lipoxygenase [%] | Compound |
| --- | --- |
| 62 | CCOC(=O)C(=CNc1ncccc1C)C(=O)OCC [Compound AM, 1,1-bis(ethoxycarbonyl)-2-(3-methylpyrid-2-ylamino)ethene] |
